Experimental data as given in patent US20260199484A1, “PROTAC DEGRADERS OF MLLT1 AND/OR MLLT3” (DARK BLUE THERAPEUTICS LTD, priority 2024, published 2026).

Columns and labels:
MV4-11 cells = test: MV4-11 cellular proliferative assay, Assay Format B (CTG 2.0, 168 h); assay type: cell-based; settings: Homo sapiens, Assay format B, 168 h, read-out: IC50 (MV4-11 cellular proliferative assay)
Description: MV4-11 cells at a confluency of ~50-80% was used for cell growth assay. 600 cells/well in a 384-well opaque cell culture plate (6007680; Perkin Elmer) were seeded in 40 μL of complete medium (IMDM+10% FBS+1× Penicillin-Streptomycin). Cells were incubated overnight at 37° C., 5% CO2. 10 mM DMSO stocks were prepared, cells were treated with 10 concentrations of test compounds starting from 1 uM or 100 nM, 3-fold dilution in 10 uL (5× concentration) of complete medium. Final DMSO concentration was 0.3%. Culture plates were centrifuged at 40×g, 30s. Cells were incubated with compounds for 168 h (7 days). After 7 days, 20 uL CTG 2.0 reagent (G9242; Promega) was added per well and luminescence reading was taken in Envision Xcite 2105 multimode plate reader. Data was analyzed in GraphPad Prism 10.0 and data was shown as % viability with respect to DMSO control and dose-response curves were generated using four parameter logistic regression. Assay quality was determined by z-factor calculation using positive and negative controls.

MLLT1 = target: T1, MLLT1 (Homo sapiens, UniProt Q03111); test: MLLT1 degradation assay in MV4-11 cells (JESS, 24 h); assay type: cell-based; parameters: endogenous in cells; host or cells: MV4-11 (ATCC CRL-9591); settings: vs DMSO control
T1 sequence (Q03111 1-559): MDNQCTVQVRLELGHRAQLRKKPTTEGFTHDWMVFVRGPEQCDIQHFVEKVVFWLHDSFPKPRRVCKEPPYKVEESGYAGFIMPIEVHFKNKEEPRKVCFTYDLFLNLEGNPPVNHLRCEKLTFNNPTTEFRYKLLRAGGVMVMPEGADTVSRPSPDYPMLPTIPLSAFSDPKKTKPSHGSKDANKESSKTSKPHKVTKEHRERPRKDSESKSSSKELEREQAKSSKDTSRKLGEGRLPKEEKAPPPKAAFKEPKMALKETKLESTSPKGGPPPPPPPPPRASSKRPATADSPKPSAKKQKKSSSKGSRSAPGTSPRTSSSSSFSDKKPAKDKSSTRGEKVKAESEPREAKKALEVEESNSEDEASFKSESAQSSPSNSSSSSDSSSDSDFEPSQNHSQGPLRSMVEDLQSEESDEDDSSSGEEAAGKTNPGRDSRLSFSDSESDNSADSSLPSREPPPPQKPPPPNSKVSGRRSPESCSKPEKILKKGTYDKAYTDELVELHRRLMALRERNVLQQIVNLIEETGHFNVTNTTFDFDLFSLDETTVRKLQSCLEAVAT
Method in brief: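 MV4-11 cells treated at 1000, 100 and 10 nM (0.1% DMSO) for 24 h at 37° C; lysates (4 ug protein) run on JESS capillary immunoassay with MLLT1 and GAPDH antibodies. Peak areas give % degradation versus DMSO, binned A (≥75%) to D (<25%).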

Structure (SMILES)	IC50 (MV4-11 cells) [µM]	MLLT1% Degradation @ 0.01 μM (MLLT1)	MLLT1% Degradation @ 0.1 μM (MLLT1)	MLLT1% Degradation @ 1 μM (MLLT1)
Cc1nn(CCCCCCCCC#Cc2cccc3c2CN(C2CCC(=O)NC2=O)C3=O)c2cc(C(=O)Nc3cc4[nH]c([C@H]5CCCN5C)cc4cn3)ccc12 (stereo partly drawn) [Example 54, 1-(10-(2-(2,6-dioxopiperidin-3-yl)-1-oxoisoindolin-4-yl)dec-9-yn-1-yl)-3-methyl-N-(2-((R)-1-methylpyrrolidin-2-yl)-1H-pyrrolo[3,2-c]pyridin-6-yl)-1H-indazole-6-carboxamide]	< 0.1	A (Category A: A≥75% degradation)	A (Category A: A≥75% degradation)	A (Category A: A≥75% degradation)
Cc1nn(CCCCCCCC#Cc2ccc(F)c3c2CN(C2CCC(=O)NC2=O)C3=O)c2cc(C(=O)Nc3cc4[nH]c([C@H]5CCCN5C)cc4cn3)ccc12 (stereo partly drawn) [Example 52, 1-(9-(2-(2,6-dioxopiperidin-3-yl)-7-fluoro-1-oxoisoindolin-4-yl)non-8-yn-1-yl)-3-methyl-N-(2-((R)-1-methylpyrrolidin-2-yl)-1H-pyrrolo[3,2-c]pyridin-6-yl)-1H-indazole-6-carboxamide]	< 0.1	A (Category A: A≥75% degradation)	A (Category A: A≥75% degradation)	A (Category A: A≥75% degradation)
Cc1nn(CCCCCCCC#Cc2cccc3c2CN(C2CCC(=O)NC2=O)C3=O)c2cc(C(=O)Nc3cc4[nH]c([C@H]5CCCN5C)c(C#N)c4cn3)ccc12 (stereo partly drawn) [Example 66, N-(3-cyano-2-((R)-1-methylpyrrolidin-2-yl)-1H-pyrrolo[3,2-c]pyridin-6-yl)-1-(9-(2-(2,6-dioxopiperidin-3-yl)-1-oxoisoindolin-4-yl)non-8-yn-1-yl)-3-methyl-1H-indazole-6-carboxamide]	< 0.1	A (Category A: A≥75% degradation)	A (Category A: A≥75% degradation)	A (Category A: A≥75% degradation)
Cc1nn(CC2CCN(c3cccc4c3CN(C3CCC(=O)NC3=O)C4=O)CC2)c2cc(C(=O)Nc3cc4[nH]c([C@H]5CCCN5C)cc4cn3)ccc12 (stereo in doubt) [Example 107, 1-((1-(2-((rel-S)-2,6-dioxopiperidin-3-yl)-1-oxoisoindolin-4-yl)piperidin-4-yl)methyl)-3-methyl-N-(2-((R)-1-methylpyrrolidin-2-yl)-1H-pyrrolo[3,2-c]pyridin-6-yl)-1H-indazole-6-carboxamide]	< 0.1	A (Category A: A≥75% degradation)	A (Category A: A≥75% degradation)	A (Category A: A≥75% degradation)
Cc1nn(CC#Cc2cccc3c2CN(C2CCC(=O)NC2=O)C3=O)c2cc(C(=O)Nc3cc4[nH]c([C@H]5CCCN5C)cc4cn3)ccc12 (stereo partly drawn) [Example 72, 1-(3-(2-(2,6-dioxopiperidin-3-yl)-1-oxoisoindolin-4-yl)prop-2-yn-1-yl)-3-methyl-N-(2-((R)-1-methylpyrrolidin-2-yl)-1H-pyrrolo[3,2-c]pyridin-6-yl)-1H-indazole-6-carboxamide]	< 0.1	A (Category A: A≥75% degradation)	A (Category A: A≥75% degradation)	B (Category B: 50%≤B<75% degradation)
Cc1nn(CCCCCCCC#Cc2cccc(C3CCC(=O)NC3=O)c2F)c2cc(C(=O)Nc3cc4[nH]c([C@H]5CCCN5C)cc4cn3)ccc12 (stereo partly drawn) [Example 61, 1-(9-(3-(2,6-dioxopiperidin-3-yl)-2-fluorophenyl)non-8-yn-1-yl)-3-methyl-N-(2-((R)-1-methylpyrrolidin-2-yl)-1H-pyrrolo [3,2-c]pyridin-6-yl)-1H-indazole-6-carboxamide]	< 0.1	C (Category C: 25%≤C<50% degradation)	A (Category A: A≥75% degradation)	A (Category A: A≥75% degradation)
CN1CCC[C@@H]1c1cc2cnc(NC(=O)c3ccc4cnn(CCCCCCCC#Cc5cccc6c5CN(C5CCC(=O)NC5=O)C6=O)c4c3)cc2[nH]1 (stereo partly drawn) [Example 55, 1-(9-(2-(2,6-dioxopiperidin-3-yl)-1-oxoisoindolin-4-yl)non-8-yn-1-yl)-N-(2-((R)-1-methylpyrrolidin-2-yl)-1H-pyrrol[3,2-c]pyridin-6-yl)-1H-indazole-6-carboxamide]	< 0.1	B (Category B: 50%≤B<75% degradation)	A (Category A: A≥75% degradation)	A (Category A: A≥75% degradation)
Cc1nn(CCCCCCCC#Cc2cccc3c2CN([C@H]2CCC(=O)NC2=O)C3=O)c2cc(C(=O)Nc3cc4[nH]c([C@H]5CCCN5C)cc4cn3)ccc12 (relative stereo) [Example 98, 1-(9-(2-((rel-S)-2,6-dioxopiperidin-3-yl)-1-oxoisoindolin-4-yl)non-8-yn-1-yl)-3-methyl-N-(2-((R)-1-methylpyrrolidin-2-yl)-1H-pyrrolo[3,2-c]pyridin-6-yl)-1H-indazole-6-carboxamide]	< 0.1	A (Category A: A≥75% degradation)	A (Category A: A≥75% degradation)	A (Category A: A≥75% degradation)
Cc1nn(C2CCN(CC#Cc3cccc4c3CN(C3CCC(=O)NC3=O)C4=O)CC2)c2cc(C(=O)Nc3cc4[nH]c([C@H]5CCCN5C)cc4cn3)ccc12 (stereo partly drawn) [Example 68, 1-(1-(3-(2-(2,6-dioxopiperidin-3-yl)-1-oxoisoindolin-4-yl)prop-2-yn-1-yl)piperidin-4-yl)-3-methyl-N-(2-((R)-1-methylpyrrolidin-2-yl)-1H-pyrrolo[3,2-c]pyridin-6-yl)-1H-indazole-6-carboxamide]	< 0.1	A (Category A: A≥75% degradation)	A (Category A: A≥75% degradation)	B (Category B: 50%≤B<75% degradation)
Cc1nn(CCCCCCCC#Cc2ccc(F)c3c2CN(C2CCC(=O)NC2=O)C3=O)c2cc(C(=O)Nc3cc4[nH]c([C@H]5CCCN5C)c(Cl)c4cn3)ccc12 (stereo partly drawn) [Example 67, N-(3-chloro-2-((R)-1-methylpyrrolidin-2-yl)-1H-pyrrolo[3,2-c]pyridin-6-yl)-1-(9-(2-(2,6-dioxopiperidin-3-yl)-7-fluoro-1-oxoisoindolin-4-yl)non-8-yn-1-yl)-3-methyl-1H-indazole-6-carboxamide]	< 0.1	A (Category A: A≥75% degradation)	A (Category A: A≥75% degradation)	A (Category A: A≥75% degradation)
Cc1c([C@H]2CCCN2C)[nH]c2cc(NC(=O)c3ccc4c(C)nn(CCCCCCCC#Cc5cccc6c5CN(C5CCC(=O)NC5=O)C6=O)c4c3)ncc12 (stereo partly drawn) [Example 57, 1-(9-(2-(2,6-dioxopiperidin-3-yl)-1-oxoisoindolin-4-yl)non-8-yn-1-yl)-3-methyl-N-(3-methyl-2-((R)-1-methylpyrrolidin-2-yl)-1H-pyrrolo[3,2-c]pyridin-6-yl)-1H-indazole-6-carboxamide]	< 0.1	A (Category A: A≥75% degradation)	A (Category A: A≥75% degradation)	A (Category A: A≥75% degradation)
